Reference: ChEMBL document CHEMBL5131537 (J Med Chem, 2022)

Tests used:
[1] = Cytotoxicity against human MT4 cells assessed as reduction in cell viability by MTT assay; format: toxicity, cell-based
[2] = target: Human immunodeficiency virus type 1 reverse transcriptase (Human immunodeficiency virus 1, UniProt Q72547)
Description: Inhibition of HIV-1 reverse transcriptase using oligo(dT)16 as primer measured after 40 mins by picogreen-dye based spectrofluorometric analysis

[3] = tested on: Human immunodeficiency virus 1; experiment: microbe, parasite or virus in culture; conditions: Human immunodeficiency virus 1, IIIB, MT4
Description: Antiviral activity against wild type HIV-1 IIIB infected in human MT4 cells assessed as protection against virus-induced cytopathic effect by MTT assay

in vitro [4] = conditions: human, MT4 cells
Description: Selectivity index, ratio of CC50 for cytotoxicity against human MT4 cells to EC50 for antiviral activity against wild type HIV-1 IIIB infected in human MT4 cells

[5] = Metabolic stability in human liver assessed as intrinsic clearance in microsomes at 1 uM measured up to 45 mins in presence of NADPH by LC-MS/MS analysis; format: ADME; conditions: read-out: CLH
in vitro [6] = conditions: human
in vitro [7] = conditions: human; remark: listed apart in the source
[8] = tested on: Human immunodeficiency virus 1; experiment: Antiviral activity against HIV-1 IIIB harboring reverse transcriptase […] mutant infected in human MT4 cells by MTT assay; format: functional, organism-based; conditions: Human immunodeficiency virus 1, IIIB
[9] = tested on: Human immunodeficiency virus 1; experiment: Antiviral activity against HIV-1 IIIB harboring reverse transcriptase Y181C mutant infected in human MT4 cells by MTT assay; format: functional, organism-based; conditions: Human immunodeficiency virus 1, IIIB
[10] = tested on: Human immunodeficiency virus 1; experiment: Antiviral activity against HIV-1 IIIB harboring reverse transcriptase K103N mutant infected in human MT4 cells by MTT assay; format: functional, organism-based; conditions: Human immunodeficiency virus 1, IIIB
[11] = tested on: Human immunodeficiency virus 1; experiment: Antiviral activity against HIV-1 IIIB harboring reverse transcriptase E138K mutant infected in human MT4 cells by MTT assay; format: functional, organism-based; conditions: Human immunodeficiency virus 1, IIIB
[12] = tested on: Human immunodeficiency virus 1; experiment: microbe, parasite or virus in culture; conditions: Human immunodeficiency virus 1, IIIB, MT4; remark: listed apart in the source
Description: Antiviral activity against HIV-1 IIIB harboring reverse transcriptase Y188L mutant infected in human MT4 cells by MTT assay

| Compound | IC50 [2] [nM] | EC50 [3] [nM] | CLint scaled at 0.75 h, 1 µM (in vitro [6]) [mL/min/kg] | half-life at 0.75 h, 1 µM (in vitro [7]; microsomes) [min] | CC50 [1] [nM] | selectivity ratio (in vitro [4]) | microsomal CLint at 1 µM [5] [µL/min/mg] | EC50 [8] [nM] | EC50 [9] [nM] | EC50 [10] [nM] | EC50 [11] [nM] | EC50 [12] [nM] | CLint scaled at 0.75 h, 1 µM (in vitro [6]; liver) [mL/min/kg] | half-life at 0.75 h, 1 µM (in vitro [7]; liver microsomes) [min] |
| --- | --- | --- | --- | --- | --- | --- | --- | --- | --- | --- | --- | --- | --- | --- |
| Cc1cccc(-c2cc(C)c(Oc3cc(N)nc(Nc4ccc(C#N)cc4)n3)c(C)c2)c1 | 152 | 68.3 | – | – | 27600 | 404 | – | – | – | – | – | – | – | – |
| O=C(O)Cc1ccccc1Nc1c(Cl)cccc1Cl [DICLOFENAC] | – | – | 4.49 | 9.25 | – | – | 150 | – | – | – | – | – | – | – |
| COc1cc2cc(C#N)ccc2c(OC)c1Oc1cc(N)nc(Nc2ccc(C#N)cc2)n1 | – | 5 | – | – | 19000 | 3500 | – | 38 | – | – | – | – | – | – |
| COc1cccc(-c2cc(C)c(Oc3cc(N)nc(Nc4ccc(C#N)cc4)n3)c(C)c2)c1 | 73 | 9.7 | – | – | 19300 | 1980 | – | – | – | – | – | – | – | – |
| Cc1cc(-c2cccc(C#N)c2)cc(C)c1Oc1cc(N)nc(Nc2ccc(C#N)cc2)n1 | 42 | 7 | – | – | 20200 | 2890 | – | 88 | 73 | 8 | 46 | 878 | – | – |
| Cc1cc(-c2ccccc2Cl)cc(C)c1Oc1cc(N)nc(Nc2ccc(C#N)cc2)n1 | 100 | 28.4 | – | – | 25100 | 882 | – | – | – | – | – | – | – | – |
| Cc1cc(-c2ccc(C#N)c(C#N)c2)cc(C)c1Oc1cc(N)nc(Nc2ccc(C#N)cc2)n1 | 40 | 5.69 | – | – | 17600 | 3090 | – | – | – | – | – | – | – | – |
| Cc1cc(-c2ccc(C#N)cc2)cc(C)c1Oc1cc(N)nc(Nc2ccc(C#N)cc2)n1 | 37 | 4.7 | – | – | 18100 | 3870 | – | 8 | 16 | 4 | 12 | 82 | – | – |
| Cc1cc(Oc2cc(N)nc(Nc3ccc(C#N)cc3)n2)ccc1-c1ccc(C#N)cc1 | 26 | 2.3 | – | – | 34300 | 15100 | 36 | 71 | 33 | 10 | 12 | 1420 | 1.08 | 38.5 |
| Cc1ccccc1-c1cc(C)c(Oc2cc(N)nc(Nc3ccc(C#N)cc3)n2)c(C)c1 | 121 | 35.2 | – | – | 25600 | 726 | – | – | – | – | – | – | – | – |
| COc1ccccc1-c1cc(C)c(Oc2cc(N)nc(Nc3ccc(C#N)cc3)n2)c(C)c1 | 122 | 42.8 | – | – | 21800 | 508 | – | – | – | – | – | – | – | – |
| Cc1cc(-c2cccc(C#N)c2)ccc1Oc1cc(N)nc(Nc2ccc(C#N)cc2)n1 | 41 | 5.5 | – | – | 27400 | 4940 | – | 287 | 450 | 105 | 36 | 6550 | – | – |
| Cc1cc(-c2ccc(C#N)cc2)ccc1Oc1cc(N)nc(Nc2ccc(C#N)cc2)n1 | 29 | 2 | – | – | 10400 | 5250 | – | 38 | 32 | 3 | 9 | 1110 | – | – |
| Cc1cc(C#N)cc(C)c1Oc1nc(Nc2ccc(C#N)cc2)nc(N)c1Br [ETRAVIRINE] | – | 2.9 | – | – | > 4600 | – | – | 6 | – | 2 | 6 | 18 | – | – |
| O=C1Nc2ccc(Cl)cc2[C@@](C#CC2CC2)(C(F)(F)F)O1 [EFAVIRENZ] | – | – | – | – | > 6340 | – | – | 30 | 7 | – | – | – | – | – |
| Cc1cc(-c2ccccc2C#N)cc(C)c1Oc1cc(N)nc(Nc2ccc(C#N)cc2)n1 | 40 | 7.12 | – | – | 25400 | 3570 | – | – | – | – | – | – | – | – |
| Cc1ccnc2c1NC(=O)c1cccnc1N2C1CC1 [NEVIRAPINE] | – | – | – | – | > 15000 | – | – | 1360 | 11500 | 5840 | – | > 15000 | – | – |
| COc1cc(Oc2cc(N)nc(Nc3ccc(C#N)cc3)n2)ccc1-c1ccc(C#N)cc1 | 30 | 2.3 | – | – | 12900 | 5590 | – | 36 | 28 | 12 | 13 | 1360 | – | – |
| Cc1cc(-c2ccccc2F)cc(C)c1Oc1cc(N)nc(Nc2ccc(C#N)cc2)n1 | 46 | 9.6 | – | – | 29300 | 3060 | – | – | – | – | – | – | – | – |

Now from value to molecule, other results behind:

| IC50 [2] [nM] | EC50 [3] [nM] | CLint scaled at 0.75 h, 1 µM (in vitro [6]) [mL/min/kg] | half-life at 0.75 h, 1 µM (in vitro [7]; microsomes) [min] | Compound | CC50 [1] [nM] | selectivity ratio (in vitro [4]) | microsomal CLint at 1 µM [5] [µL/min/mg] | EC50 [8] [nM] | EC50 [9] [nM] | EC50 [10] [nM] | EC50 [11] [nM] | EC50 [12] [nM] | CLint scaled at 0.75 h, 1 µM (in vitro [6]; liver) [mL/min/kg] | half-life at 0.75 h, 1 µM (in vitro [7]; liver microsomes) [min] |
| --- | --- | --- | --- | --- | --- | --- | --- | --- | --- | --- | --- | --- | --- | --- |
| 101 | 60.6 | – | – | Cc1cc(-c2cccc(F)c2)ccc1Oc1cc(N)nc(Nc2ccc(C#N)cc2)n1 | 11300 | 187 | – | – | – | – | – | – | – | – |
| 52 | 15.8 | – | – | Cc1cc(-c2cccc(F)c2)cc(C)c1Oc1cc(N)nc(Nc2ccc(C#N)cc2)n1 | 24700 | 1570 | – | – | – | – | – | – | – | – |
| 45 | 11.5 | – | – | Cc1cc(-c2ccccc2F)ccc1Oc1cc(N)nc(Nc2ccc(C#N)cc2)n1 | 29500 | 2560 | – | – | – | – | – | – | – | – |
| 54 | 7.7 | – | – | COc1ccc(-c2cc(C)c(Oc3cc(N)nc(Nc4ccc(C#N)cc4)n3)c(C)c2)cc1 | 10700 | 1390 | – | – | – | – | – | – | – | – |
| 69 | 40.1 | – | – | Cc1ccc(-c2cc(C)c(Oc3cc(N)nc(Nc4ccc(C#N)cc4)n3)c(C)c2)cc1 | 10000 | 249 | – | – | – | – | – | – | – | – |
| 45 | 9.7 | – | – | Cc1cc(-c2ccccc2)cc(C)c1Oc1cc(N)nc(Nc2ccc(C#N)cc2)n1 | 25600 | 2640 | – | – | – | – | – | – | – | – |
| 50 | 9.84 | – | – | Cc1cc(-c2ccccc2C#N)ccc1Oc1cc(N)nc(Nc2ccc(C#N)cc2)n1 | 28600 | 2900 | – | – | – | – | – | – | – | – |
| 90 | 10.9 | – | – | Cc1cc(-c2ccc(C#N)c(C#N)c2)ccc1Oc1cc(N)nc(Nc2ccc(C#N)cc2)n1 | 76700 | 7040 | – | – | – | – | – | – | – | – |
| 50 | 9.5 | – | – | Cc1cc(-c2ccc(F)cc2)ccc1Oc1cc(N)nc(Nc2ccc(C#N)cc2)n1 | 20100 | 2120 | – | – | – | – | – | – | – | – |
| 102 | 34.2 | – | – | Cc1cc(-c2ccc(Cl)cc2)cc(C)c1Oc1cc(N)nc(Nc2ccc(C#N)cc2)n1 | 21500 | 628 | – | – | – | – | – | – | – | – |
| 61 | 13.6 | – | – | Cc1cc(-c2ccc(F)cc2)cc(C)c1Oc1cc(N)nc(Nc2ccc(C#N)cc2)n1 | 23100 | 1700 | – | – | – | – | – | – | – | – |
| 39 | 6 | – | – | Cc1cc(-c2ccc(C#N)c(F)c2)ccc1Oc1cc(N)nc(Nc2ccc(C#N)cc2)n1 | 6600 | 1090 | – | – | – | – | – | – | – | – |
| 50 | 5.33 | – | – | Cc1cc(-c2ccc(C#N)c(F)c2)cc(C)c1Oc1cc(N)nc(Nc2ccc(C#N)cc2)n1 | 5000 | 937 | – | – | – | – | – | – | – | – |
| 85 | 38 | – | – | Cc1cc(-c2cccc(Cl)c2)cc(C)c1Oc1cc(N)nc(Nc2ccc(C#N)cc2)n1 | 22300 | 588 | – | – | – | – | – | – | – | – |
| 39 | 19 | – | – | Cc1cc(-c2ccccc2)ccc1Oc1cc(N)nc(Nc2ccc(C#N)cc2)n1 | 20000 | 1050 | – | – | – | – | – | – | – | – |
